Patent US10132029B2, “Method for reducing adhesion of microorganisms to fabrics” (priority 2013, dated 2018)

Tests used:
[1] = system: Escherichia coli; experiment: Bacterial adhesion to coated glass slides via fluorescence microscopy (DAPI); type: cell-based; details: for Reduction in cell count relative to control [%] E. coli: coated glass slide vs uncoated glass control K; for Cell count [1/cm^2] E. coli: glass slide coated from 0.1% strength solution, bacterial suspension 10^9 microbes/ml, 30 measuring windows
Excerpt: Silane derivatives S1, S3, S4 and S5 as identified above in example 1 were used to produce coatings on glass slides. As a control (comparison sample) K, an uncoated glass slide cleaned with isopropanol was used.
For the coating of the slides they were immersed for 60 seconds into a 0.1% strength solution of the corresponding silane derivative in ethanol/water as solvent with a water fraction of 5%. The solutions had been adjusted with acetic acid beforehand to a pH in the range from 4 to 5. The wetted slides were subsequently dried at 160° C. for 1 hour.
The slides wetted with the bacterial suspension were analyzed by microscope to determine the adhering bacteria. […] The fluorescent dye used was DAPI (4′,6-diamidine-2-phenylindole), which binds to DNA and fluoresces under UV excitation. In order to determine the adhesion characteristics, the cell counts per cm^2 were ascertained in 30 measuring windows, and the adhesion pattern was evaluated. Cell attachment was evaluated on an Olympus IX 51 using the Labflow AnalySIS image processing program.
Bacterial suspensions produced and used were suspensions of test cultures of the strains Staphylococcus aureus and Escherichia coli. The concentration of the bacterial suspension was 10^9 microbes/ml.

[2] = system: S. aureus DSMZ 20231; experiment: Syto9 microtiter plate assay: adhesion of bacteria to coated polyester fabric samples; type: cell-based, Staphylococcus aureus; details: for Reduction in adhered bacteria [%]: S. aureus, polyester; for Reduction in adhered bacteria [%] S. aureus: polyester fabric, application concentration 0.1 wt %, commercial product applied directly by padding, relative to uncoated fabric
Protocol: Circular fabric samples with a diameter of 0.6 cm were punched from coated and uncoated cotton and polyester fabrics. The fabric samples were fixed to a microtiter plate. The fabric samples were washed with acetone and sterilized with UV light for 60 minutes.
The strains were coated fresh from glycerol bacterial cultures onto tryptic soy agar (TSA). Incubation took place overnight at 33° C. The nutrient medium prepared was a tryptic soy broth (TSB), with 30% of the amount recommended by the manufacturer, supplemented with 0.25% of glucose. […] The nutrient medium was inoculated with the bacterial cultures and after inoculation was cultivated overnight at 37° C. and 160 rpm.
The resulting overnight cultures were centrifuged at 8500 g for 15 minutes and washed with 50 ml of isotonic saline solution (0.9 wt %). Bacterial suspensions in isotonic saline solutions were prepared. The optical density of the various bacterial suspensions was determined at 595 nm and adjusted to a level of about 1.2.
50 μl of the final microorganism suspension in isotonic saline solution (0.9 wt %) prepared as described under 2.2 were added to the coated and uncoated fabric samples fixed on the microtiter plate (see 2.1). The microtiter plates were closed and sealed off with Parafilm. The microtiter plates were placed in an antievaporation box and incubated at 33° C. for 2 h and at 40 rpm. The expected colony-forming unit count (CFU) of the inoculum at the start was 10^6-10^7 CFU/ml.
After the biofilm had formed, the planctonic cells were removed and used as a sample for determining the optical density at 595 nm. For this purpose, the samples were made up to a volume of 150 μl, and 100 μl were withdrawn for the optical density determination in a photometer. The optical density of the corresponding control solution with sterile isotonic saline solution was subtracted from the optical densities found. Through the determination of the planctonic cells after the formation of biofilm, the amount of bacteria available for adhesion was monitored.
The fabric samples and the resulting biofilm were washed three times with 200 to 300 μl of isotonic saline solution.
The fabric samples obtained under 2.4 (after formation of biofilm) were placed together with 100 μl of isotonic saline solution into wells of a 96-well microtiter plate.
Investigations into the removal of the adhered microorganisms from the fabric surfaces were carried out with vortexing, ultrasound, with enzymatic treatment, or with combinations thereof. Treatment in the vortex amounted to 5 minutes and was performed horizontally. The ultrasound treatment was carried out in an ultrasound bath for 5 minutes. For the enzymatic removal, the fabric samples were treated with enzymes, such as trypsin or a mixture of different enzymes, for example, during incubation at 37° C. for 1 hour.
Following removal of the adhered bacteria, the fabric samples were removed from the microtiter plates.
The number of removed bacteria in the resulting suspension was determined by staining with Syto9 and fluorescence measurement (fluorescence filter with excitation at 485/20 nm and emission at 528/20 nm) or by staining with BacTiterGlo and bioluminescence measurement. Furthermore, it is possible to determine the number of adhered and removed microorganisms by means of protein assay (e.g., BCA assay, Bradford Assay) or optical density proliferation assay.
The relative variables (e.g., fluorescence units (RFU)) concerning the coated and uncoated fabrics were compared, allowing the reduction in adhered bacteria in % to be determined in accordance with the following formula: Reduction in adhered bacteria[%]=[(RFUuc−RFUuc)/RFUuc]*100 where • RFUuc=relative fluorescence units of the removed bacteria of the uncoated substrate • RFUc=relative fluorescence units of the removed bacteria of the coated substrate […]

[3] = coating concentration 0.001 %, wash pretreatment (A) unwashed
[4] = coating concentration 0.001 %, wash pretreatment (B) washed twice at 30° C. only with water
[5] = coating concentration 0.001 %, wash pretreatment (C) washed once at 30° C. EN ISO 6330 method 8A with ECE B detergent
[6] = coating concentration 0.01 %, wash pretreatment (A) unwashed
[7] = coating concentration 0.01 %, wash pretreatment (B) washed twice at 30° C. only with water
[8] = coating concentration 0.01 %, wash pretreatment (C) washed once at 30° C. EN ISO 6330 method 8A with ECE B detergent
[9] = coating concentration 0.1 %, wash pretreatment (A) unwashed
[10] = coating concentration 0.1 %, wash pretreatment (B) washed twice at 30° C. only with water
[11] = coating concentration 0.1 %, wash pretreatment (C) washed once at 30° C. EN ISO 6330 method 8A with ECE B detergent

| Compound | adhesion of bacteria to coated glass, assessment in words ([1]; both series of tests (S. aureus and E. coli), compared with glass control) | Reduction in cell count relative to control [%] E. coli [1] | Cell count [1/cm^2] E. coli [1] | Reduction in adhered bacteria [%] [2, 3] | Reduction in adhered bacteria [%] [2, 4] | Reduction in adhered bacteria [%] [2, 5] | Reduction in adhered bacteria [%] [2, 6] | Reduction in adhered bacteria [%] [2, 7] | Reduction in adhered bacteria [%] [2, 8] | Reduction in adhered bacteria [%] [2, 9] | Reduction in adhered bacteria [%] [2, 10] | Reduction in adhered bacteria [%] [2, 11] | Reduction in adhered bacteria [%] S. aureus [2] |
| --- | --- | --- | --- | --- | --- | --- | --- | --- | --- | --- | --- | --- | --- |
| N-(triethoxysilylpropyl)-O-polyethylene oxide-urethane, (4-6 EO units) [S3] | very good results | 71% | 233 000 1/cm^2 | 57% | 54% | 69% | 63% | 34% | 58% | 47% | 46% | 61% | 55% |
| CO[Si](CCCN(CCN(CC(=O)[O-])CC(=O)[O-])CC(=O)[O-])(OC)OC.[Na+].[Na+].[Na+] [S5, N-(trimethoxysilylpropyl)ethylenediaminetriacetyl acid, trisodium salt] |  | 61% | 306 000 1/cm^2 | 69% | 59% | 75% | 44% | 22% | 53% | 72% | 68% | 38% | 46% |
